Patent publication US12428413B2 (CHDI Foundation, Inc., priority 2019, dated 2025)
Counter-ions that a name gives are not always drawn. Like-named read-outs stand apart in the source and are kept apart here.

Key:
[1] = system: cellular ROCK activity (cofilin phosphorylation at Ser3) in A7r5 rat smooth muscle cells; assay: Cellular ROCK activity: cofilin (Ser3) phosphorylation, In-Cell Western assay; type: cell-based; details: 1 hour compound incubation, phospho-cofilin (Ser3), read-out: CELL_IC50
Protocol: The potency of Rho-associated protein kinase (ROCK) inhibitors was quantified by measuring cofilin phosphorylation levels at Serine 3 (Ser3) as a measure of cellular ROCK activity by In-Cell Western assay. […] The assay plate was imaged and quantified on the Odyssey imager (LICOR Biosciences).
ROCK inhibitor compound plate preparation. […] Stock compounds and control are added directly to ECHO plate (Labcyte) by Janus.
A7r5 cell culture and plating. A7r5 cells were cultured according to standard cell culture protocols in A7r5 growth media (DMEM with Glutamax and 10% FBS). […] 45 μl of re-suspended A7r5 cells were plated at 3000 cells/well in a sterile, μclear, black, F-bottom, 384-well microplate (Greiner bio-one). Seeded cells allowed to settle in wells on the bench for 1 hour before incubation at 37° C., 5% CO2 overnight.
Assay reagent and antibody preparations. Wash buffer was prepared by addition of Tween-20 to Dulbecco's Phosphate Buffered Saline (DPBS) (1×) without calcium and magnesium to make 1% Tween-20 as final concentration. Blocking buffer was prepared by addition of TritonX-100 to SeaBlock buffer (ThermoFisher) to make 0.3% TritonX-100 as final concentration. […] Secondary antibody mix was prepared by diluting donkey anti-rabbit 800CW antibody (LICOR Biosciences) 1:1000 in SeaBlock buffer.
Assay procedure. Compound plate was diluted by addition of 19 μl/well compound dilution buffer (DMEM with Glutamax) using 125 μl 16-channel Matrix electronic pipette. 5 μl diluted compound was stamped from compound plate to assay plate containing A7r5 cells using Bravo (384-well head from Agilent) liquid handler and incubated at 37° C., 5% CO2 for 1 hour. Cells were fixed by addition of 5 μl 37% formaldehyde using 125 μl 16-channel Matrix electronic pipette and incubation for 20 min at room temperature. The assay plate was washed 5× with 60 μl/well wash buffer. […] Next, the assay plate was sealed, centrifuged at 1000 rpm for 5 seconds and incubated at 4° C. overnight on an orbital shaker at 300 rpm. […] The assay plate was centrifuged at 1000 rpm for 5 seconds and incubated on an orbital shaker at 300 rpm for 60 min at room temperature. Finally, assay plate was washed and wells left empty before measurement of 700 nm and 800 nm fluorescence intensities on Odyssey imager set at 4.0 mm focus offset.

[2] = target: human catalytic domain ROCK II protein (amino acids 5-554) with a N-terminal GST tag (Homo sapiens, UniProt O75116); assay: biochemical
Sequence of human catalytic domain ROCK II protein (amino acids 5-554) with a N-terminal GST tag (O75116 5-554): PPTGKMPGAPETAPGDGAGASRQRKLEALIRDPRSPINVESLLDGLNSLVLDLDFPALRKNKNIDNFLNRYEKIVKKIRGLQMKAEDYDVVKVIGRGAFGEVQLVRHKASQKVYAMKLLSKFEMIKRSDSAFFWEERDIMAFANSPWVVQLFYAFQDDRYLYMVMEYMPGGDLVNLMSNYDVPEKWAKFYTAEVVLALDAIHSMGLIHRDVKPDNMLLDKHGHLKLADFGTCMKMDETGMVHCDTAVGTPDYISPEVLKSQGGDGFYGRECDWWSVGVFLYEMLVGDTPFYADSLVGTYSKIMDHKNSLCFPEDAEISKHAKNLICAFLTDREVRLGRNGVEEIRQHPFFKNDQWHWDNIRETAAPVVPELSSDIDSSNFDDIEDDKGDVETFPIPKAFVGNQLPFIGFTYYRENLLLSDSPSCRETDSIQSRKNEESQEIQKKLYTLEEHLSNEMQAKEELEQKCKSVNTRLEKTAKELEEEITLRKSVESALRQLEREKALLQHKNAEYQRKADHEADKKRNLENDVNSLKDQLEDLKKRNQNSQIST
Protocol: The potency of Rho-associated protein kinase (ROCK) II inhibitors was quantified by measuring ROCKII kinase domain enzymatic activity using ADP-Glo™ Kinase Assay format. […] ADP-Glo™ Reagent was added that terminates ROCKII reaction and depletes remaining ATP. Kinase Detection Reagent was added to convert ADP to ATP and allow newly synthesized ATP to be measured using luciferase/luciferin reaction. The light generated correlates to the amount of ADP generated in the ROCKII biochemical reaction, which is indicative of ROCKII activity.
ROCK inhibitor compound plate preparation. Lyophilized ROCK inhibitors were re-suspended to a final concentration of 10 mM in 100% dimethyl sulfoxide (DMSO) and control reference compound, Fasudil HCl, to a final concentration of 100 mM in 100% DMSO using Janus automated liquid handler workstation (Perkin Elmer) and were stored at room temperature under nitrogen. Stock compounds and controls were added directly to ECHO plate (Labcyte) by Janus. The Echo 555 liquid handler (Labcyte) dispensed duplicate 10-point concentration-response curves for each compound directly into 384-well, black, U-bottom assay plate (Matrix Technologies Ltd) at 100× final assay concentration. Final compound or control volume per well is 100 nl (0.1 μl). Assay standards were prepared by Echo dispensing 5 nl of 100 mM Fasudil HCl and 95 nl DMSO for full inhibition control (50 μM final assay concentration and 1% DMSO) and 100 nl of DMSO for full activity control (1% DMSO).
The ROCKII catalytic domain enzyme was human catalytic domain ROCK II protein (amino acids 5-554) with a N-terminal GST tag (SignalChem).
Preparation of S6K peptide substrate (20 μM) and ATP (10 μM). The S6K peptide sequence (amino acid sequence [sequence]) was based on human 40 S ribosomal protein S6 (amino acids 230-238) (SignalChem). A 2× working solution of substrate and ATP was prepared from 5 mg/ml stock aliquot (dissolved in 20 mM Tris-HCl, pH 7.5) of S6K peptide diluted to 0.25 μg/10 μl (20 μM) with assay buffer (25 mM MOPS, 12.5 mM 2-glycerophosphate, 5 mM EGTA pH 8.0, 25 mM MgCl2, 2 mM EDTA, 0.25 mM DTT (added on the day of assay) and 0.01% BSA (added on the day of assay)).
Assay procedure. 5 μl/well substrate/ATP mix was added to each well of the assay plate containing compounds using 125 μl 16-channel Matrix electronic pipette (Matrix Technologies Ltd.). The plate was sealed, mixed on orbital shaker at 1000 rpm (rotations per minute) for 10 seconds and centrifuged at 1000 rpm for 1 min. The assay was started by addition of 5 μl/well of the ROCKII enzyme mix to each well using 125 μl 16-channel Matrix electronic pipette. The assay plate was sealed, mixed on orbital shaker at 1000 rpm for 10 seconds and centrifuged at 1000 rpm for 1 min. The assay plate was incubated for 30 min at room temperature on an orbital shaker at 400 rpm. The enzyme reaction was stopped by addition of 10 μl/well of ADP-Glo™ solution to assay plate using 125 μl 16-channel Matrix electronic pipette. The assay plate was sealed, mixed on orbital shaker at 1000 rpm for 10 seconds and centrifuged at 1000 rpm for 1 min. The assay plate was placed in a polystyrene box for 40 minutes at room temperature. Next, 20 μl/well of Kinase Detection Reagent was added to assay plate using 125 μl 16-channel Matrix electronic pipette. The assay plate was further incubated in a polystyrene box for 30 min at room temperature without the seal and luminescence signal was measured using EnVision (Perkin Elmer) in top read mode.

With `C[C@@H]1CN(c2ccncc2F)CCN1C(=O)NCc1cccc2nn(C)cc12` [Example 78, (R)-4-(3-Fluoropyridin-4-yl)-2-methyl-N-((2-methyl-2H-indazol-4-yl)methyl)piperazine-1-carboxamide] as the compound, how does the IC50 ([1]; Rattus norvegicus, A7R5, 1 h) read?
Its IC50 is 34.3 nM.

And the IC50 [2]?
The IC50 was 4.2 nM.

`C[C@@H]1CN(c2ccncc2F)CCN1C(=O)N[C@H](C)c1cccc2c1CCO2` [Example 141] was tested. Which IC50 ([1]; Rattus norvegicus, A7R5, 1 h) did it give?
Its IC50 is 1.7 nM.

What about the IC50 [2] of the same compound?
The IC50 was 1.8 nM.

With `C[C@@H]1CN(c2ccnc(F)c2)CCN1C(=O)N[C@H](C)c1cccc2c1CCO2` [Example 114] as the compound, how does the IC50 ([1]; Rattus norvegicus, A7R5, 1 h) read?
The IC50 was 30.3 nM.

And the IC50 [2]?
Its IC50 is 3.5 nM.

Which IC50 ([1]; Rattus norvegicus, A7R5, 1 h) does the source give for `C[C@@H]1CN(c2ccncc2F)CCN1C(=O)N[C@H](C)c1cccc2occc12` [Example 142] here?
The IC50 was 9.1 nM.

What about the IC50 [2] of the same compound?
Its IC50 is 2.6 nM.

Which IC50 ([1]; Rattus norvegicus, A7R5, 1 h) does the source give for `COc1ncccc1CNC(=O)N1CCN(c2ccncc2F)C[C@H]1C` [Example 56, (R)-4-(3-Fluoropyridin-4-yl)-N-((2-methoxypyridin-3-yl)methyl)-2-methylpiperazine-1-carboxamide] here?
Its IC50 is 3050 nM.

And the IC50 [2]?
Its IC50 is 360 nM.

With `C[C@@H]1CN(c2ccncc2F)CCN1C(=O)NCc1ccccc1Cl` [Example 54, (R)—N-(2-Chlorobenzyl)-4-(3-fluoropyridin-4-yl)-2-methylpiperazine-1-carboxamide] as the compound, how does the IC50 ([1]; Rattus norvegicus, A7R5, 1 h) read?
Its IC50 is 144 nM.

And the IC50 [2]?
The IC50 was 13 nM.

For `COc1cccc(CNC(=O)N2CCN(c3ccncc3F)C[C@H]2C)c1` [Example 138], which IC50 ([1]; Rattus norvegicus, A7R5, 1 h) is on record?
The IC50 was 97.5 nM.

And the IC50 [2]?
Its IC50 is 4.2 nM.

What does the source list for `CC(NC(=O)N1CCN(c2ccncc2F)CC1)c1cccc(F)c1Cl` (single isomer, unassigned) [Example 23, N-(1-(2-Chloro-3-fluorophenyl)ethyl)-4-(3-fluoropyridin-4-yl)piperazine-1-carboxamide]?
IC50 [1]: 1440 nM; IC50 [2]: 88.8 nM

Which IC50 [2] does the source give for `C[C@@H]1CN(c2ccncc2F)C[C@@H](C)N1C(=O)NCc1ccccc1Cl` [Example 92, (2R,6R)—N-(2-Chlorobenzyl)-4-(3-fluoropyridin-4-yl)-2,6-dimethylpiperazine-1-carboxamide] here?
Its IC50 is 563 nM.

How did the IC50 ([1]; Rattus norvegicus, A7R5, 1 h) turn out when `C[C@@H]1CN(c2ccnc(F)c2)CCN1C(=O)N[C@H](C)c1cccc2c1OCO2` [Example 12, (R)—N—((R)-1-(Benzo[d][1,3]dioxol-4-yl)ethyl)-4-(2-fluoropyridin-4-yl)-2-methylpiperazine-1-carboxamide] was run?
Its IC50 is 200 nM.

What about the IC50 [2] of the same compound?
The IC50 was 11.5 nM.

`C[C@@H]1CN(c2ccncc2F)C[C@@H](C)N1C(=O)N[C@H](C)c1cccc2c1CCO2` [Example 96, (2R,6R)—N—((R)-1-(2,3-Dihydrobenzofuran-4-yl)ethyl)-4-(3-fluoropyridin-4-yl)-2,6-dimethylpiperazine-1-carboxamide] was tested. Which IC50 ([1]; Rattus norvegicus, A7R5, 1 h) did it give?
Its IC50 is 34.7 nM.

And the IC50 [2]?
The IC50 was 6.5 nM.

Which results are given for `COc1ccc(F)c([C@@H](C)NC(=O)N2CCN(c3ccncc3F)CC2)c1` [Example 126]?
IC50 ([1]; Rattus norvegicus, A7R5, 1 h): 924 nM; IC50 [2]: 60.9 nM

For `COc1cccc(CN2CC[C@@H]3CN(c4ccncc4F)CCN3C2=O)c1` [Example 89, (R)-2-(3-Fluoropyridin-4-yl)-7-(3-methoxybenzyl)octahydro-6H-pyrazino[1,2-c]pyrimidin-6-one], which IC50 ([1]; Rattus norvegicus, A7R5, 1 h) is on record?
The IC50 was 1150 nM.

What about the IC50 [2] of the same compound?
The IC50 was 55.1 nM.

For `CC(NC(=O)N1CCN(c2ccncc2F)CC1)c1c(F)cccc1Cl` (centres unmarked) [Example 26, N-(1-(2-Chloro-6-fluorophenyl)ethyl)-4-(3-fluoropyridin-4-yl)piperazine-1-carboxamide], which IC50 ([1]; Rattus norvegicus, A7R5, 1 h) is on record?
The IC50 was 1160 nM.

And the IC50 [2]?
The IC50 was 65.5 nM.

For `COc1ccc(Cl)c([C@@H](C)NC(=O)N2CCN(c3ccncc3F)CC2)c1` [Example 24, (R)—N-(1-(2-Chloro-5-methoxyphenyl)ethyl)-4-(3-fluoropyridin-4-yl)piperazine-1-carboxamide], which IC50 ([1]; Rattus norvegicus, A7R5, 1 h) is on record?
Its IC50 is 902 nM.

What about the IC50 [2] of the same compound?
Its IC50 is 37.5 nM.

With `COc1cccc([C@H](C)NC(=O)N2CCN(c3ccncc3F)CC2)c1Cl` [Example 125] as the compound, how does the IC50 ([1]; Rattus norvegicus, A7R5, 1 h) read?
The IC50 was 4310 nM.

And the IC50 [2]?
The IC50 was 1160 nM.

Which results are given for `C[C@@H]1CN(c2ccncc2F)CCN1C(=O)NCc1cccc2c1OC(F)(F)O2` [Example 74, (R)—N-((2,2-Difluorobenzo[d][1,3]dioxol-4-yl)methyl)-4-(3-fluoropyridin-4-yl)-2-methylpiperazine-1-carboxamide Hemiformate]?
IC50 ([1]; Rattus norvegicus, A7R5, 1 h): 978 nM; IC50 [2]: 56.8 nM

How did the IC50 ([1]; Rattus norvegicus, A7R5, 1 h) turn out when `COc1ccc(F)c(CNC(=O)N2CCN(c3ccncc3F)C[C@H]2C)c1` [Example 55, (R)—N-(2-Fluoro-5-methoxybenzyl)-4-(3-fluoropyridin-4-yl)-2-methylpiperazine-1-carboxamide] was run?
The IC50 was 602 nM.

What about the IC50 [2] of the same compound?
The IC50 was 23.3 nM.

Which IC50 ([1]; Rattus norvegicus, A7R5, 1 h) does the source give for `C[C@@H]1CN(c2ccncc2F)CCN1C(=O)NCc1cccc2c1OCCO2` [Example 77, (R)—N-((2,3-Dihydrobenzo[b][1,4]dioxin-5-yl)methyl)-4-(3-fluoropyridin-4-yl)-2-methylpiperazine-1-carboxamide formate] here?
The IC50 was 191 nM.

What about the IC50 [2] of the same compound?
The IC50 was 7.6 nM.

How did the IC50 ([1]; Rattus norvegicus, A7R5, 1 h) turn out when `C[C@@H]1CN(c2ccnc(F)c2)CCN1C(=O)N[C@H](C)c1cccc2occc12` [Example 113] was run?
The IC50 was 122 nM.

And the IC50 [2]?
Its IC50 is 3.9 nM.

Which IC50 ([1]; Rattus norvegicus, A7R5, 1 h) does the source give for `Cc1cnc2cccc([C@@H](C)NC(=O)N3CCN(c4ccncc4F)C[C@H]3C)n12` [Example 65, (R)-4-(3-Fluoropyridin-4-yl)-2-methyl-N—((R)-1-(3-methylimidazo[1,2-a]pyridin-5-yl)ethyl)piperazine-1-carboxamide] here?
Its IC50 is 13.2 nM.

What about the IC50 [2] of the same compound?
Its IC50 is 3.4 nM.

Which results are given for `Cc1cc2c([C@@H](C)NC(=O)N3CCN(c4ccncc4F)CC3)cccc2o1` [Example 31, (R)-4-(3-Fluoropyridin-4-yl)-N-(1-(2-methylbenzofuran-4-yl)ethyl)piperazine-1-carboxamide]?
IC50 ([1]; Rattus norvegicus, A7R5, 1 h): 189 nM; IC50 [2]: 3.7 nM

What does the source list for `COc1cccc([C@@H](C)NC(=O)N2CCN(c3ccncc3F)[C@H]3C[C@H]32)c1` [Example 152]?
IC50 ([1]; Rattus norvegicus, A7R5, 1 h): 248 nM; IC50 [2]: 16.3 nM

Which results are given for `COc1cccc([C@@H](C)NC(=O)N2CCN(c3ccnc(F)c3)C[C@H]2C)c1` [Example 1, (R)-4-(2-Fluoropyridin-4-yl)-N—((R)-1-(3-methoxyphenyl)ethyl)-2-methylpiperazine-1-carboxamide]?
IC50 ([1]; Rattus norvegicus, A7R5, 1 h): 122 nM; IC50 [2]: 6.5 nM

With `COc1cccc([C@@H](C)NC(=O)N2CCN(c3ccncc3F)CC2)c1F` [Example 18, (R)—N-(1-(2-Fluoro-3-methoxyphenyl)ethyl)-4-(3-fluoropyridin-4-yl)piperazine-1-carboxamide] as the compound, how does the IC50 ([1]; Rattus norvegicus, A7R5, 1 h) read?
Its IC50 is 2550 nM.

And the IC50 [2]?
The IC50 was 198 nM.

Which results are given for `O=C(NCc1cccc2ncoc12)N1CCN(c2ccncc2F)CC1` [Example 39, N-(Benzo[d]oxazol-7-ylmethyl)-4-(3-fluoropyridin-4-yl)piperazine-1-carboxamide]?
IC50 ([1]; Rattus norvegicus, A7R5, 1 h): 559 nM; IC50 [2]: 54.6 nM

For `COc1cccc([C@@H](C)NC(=O)N2[C@H](C)CN(c3ccncc3F)C[C@H]2C)c1` [Example 97, (2R,6R)-4-(3-Fluoropyridin-4-yl)-N—((R)-1-(3-methoxyphenyl)ethyl)-2,6-dimethylpiperazine-1-carboxamide Formate], which IC50 ([1]; Rattus norvegicus, A7R5, 1 h) is on record?
The IC50 was 114 nM.

What about the IC50 [2] of the same compound?
Its IC50 is 12 nM.

`C[C@@H]1CN(c2ccncc2F)CCN1C(=O)OCc1cccc2nccn12` [Example 73, Imidazo[1,2-a]pyridin-5-ylmethyl (R)-4-(3-fluoropyridin-4-yl)-2-methylpiperazine-1-carboxylate] was tested. Which IC50 ([1]; Rattus norvegicus, A7R5, 1 h) did it give?
Its IC50 is 1420 nM.

And the IC50 [2]?
Its IC50 is 227 nM.

How did the IC50 [2] turn out when `Cc1cnc2cccc([C@H](C)NC(=O)N3CCN(c4ccncc4F)CC3)n12` [Example 35, (S)-4-(3-fluoropyridin-4-yl)-N-(1-(3-methylimidazo[1,2-a]pyridin-5-yl)ethyl)piperazine-1-carboxamide] was run?
Its IC50 is 142 nM.

With `C[C@@H]1CN(C(=O)N[C@H](C)c2ccc(F)cc2Cl)CCN1c1ccnc(F)c1` [Example 14, (R)—N—((R)-1-(2-Chloro-4-fluorophenyl)ethyl)-4-(2-fluoropyridin-4-yl)-3-methylpiperazine-1-carboxamide] as the compound, how does the IC50 [2] read?
Its IC50 is 3410 nM.

`C[C@@H]1CN(c2ccnc(F)c2)CCN1C(=O)NCc1cccc2c1OC(F)(F)O2` [Example 5, (R)—N-((2,2-Difluorobenzo[d][1,3]dioxol-4-yl)methyl)-4-(2-fluoropyridin-4-yl)-2-methylpiperazine-1-carboxamide] was tested. Which IC50 [2] did it give?
Its IC50 is 864 nM.

Which IC50 [2] does the source give for `C[C@H]1CN(C(=O)NCc2cccc(OC(F)F)c2)CCN1c1ccnc(F)c1` [Example 122] here?
Its IC50 is 802 nM.

How did the IC50 [2] turn out when `C[C@@H]1CN(c2ccncc2F)CCN1C(=O)N[C@H](C)c1cccc2c1N(C)CCO2` [Example 143] was run?
Its IC50 is 3070 nM.

`COc1cc(F)cc(CN2C[C@H]3CN(c4ccncc4F)CCN3C2=O)c1` [Example 85, (R)-2-(3-Fluoro-5-methoxybenzyl)-7-(3-fluoropyridin-4-yl)hexahydroimidazo[1,5-a]pyrazin-3(2H)-one] was tested. Which IC50 [2] did it give?
Its IC50 is 4680 nM.

`O=C(NCc1cccc(OC(F)F)c1)N1CCN(c2ccnc(F)c2)CC1` [Example 103] was tested. Which IC50 [2] did it give?
The IC50 was 1060 nM.
